Consider 37 compounds from patent publication US9271960B2, “Tetrahydrocarbazoles as active agents for inhibiting VEGF production by translational control” (PTC Therapeutics, Inc., priority 2004, dated 2016).

Like-named read-outs stand apart in the source and are kept apart here. Some results are limits rather than exact numbers.

The subject of the test is VEGF. Kind of test: Hypoxia-inducible endogenous VEGF expression ELISA in HeLa cells. It is filed as cell-based. The settings on record: Homo sapiens, HeLa, VEGF protein by ELISA. The essentials:
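HeLa cells held 24–48 h in hypoxia (1% O2) with a concentration series of compound; VEGF secreted into media quantified by ELISA against a standard curve. Parallel Cell Titer Glo viability under identical conditions gives CC50; EC50 from percent-inhibition curves.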

Where [1] appears, read: compounds 1-155, hypoxic conditions (1% O2), read-out: ELISA Activity.
The mark [2] stands for this setting: compounds 191-239, hypoxic conditions, read-out: ELISA Activity EC50.
Where [3] appears, read: purchased compounds 156-188, hypoxic conditions, read-out: ELISA Activity.
Where [4] appears, read: purchased compounds 156-188, hypoxic conditions, read-out: ELISA EC50.

Turning to `CN(C(=O)c1ccccc1)C1CCCc2c1[nH]c1ccc(Br)cc21` (stereo not drawn) [Compound 69, N-(6-Bromo-2,3,4,9-tetrahydro-1H-carbazol-1-yl)-N-methyl-benzamide], under setting [1], the EC50 is 200 to 1000 nM.

As to `OC1CCc2c([nH]c3ccc(Br)cc23)C1c1ccccc1` (stereo not drawn) [Compound 236], under setting [2], the EC50 lay within 40 to 200 nM.

With `O=C(NC1CCCc2c1[nH]c1ccc(Br)cc21)c1cccs1` (stereo not drawn) [Compound 128, Thiophene-2-carboxylic acid (6-bromo-2,3,4,9-tetrahydro-1H-carbazol-1-yl)-amide], the EC50 under setting [1] is under 10 nM.

With `NC1CCCc2c1[nH]c1c(Br)cccc21` (stereo not drawn) [Compound 99, 8-Bromo-2,3,4,9-tetrahydro-1H-carbazol-1-ylamine], the EC50 under setting [1] was over 1000 nM.

On to `COc1ccccc1NC1CCCc2c1[nH]c1ccc(Br)cc21` (stereo not drawn) [Compound 45, (6-Bromo-2,3,4,9-tetrahydro-1H-carbazol-1-yl)-(2-methoxy-phenyl)-amine], for which, under setting [1], the EC50 is 40 to 200 nM.

With `Cc1ccc2c(c1)c1c3n2CCN(C(=O)c2ccccc2Cl)C3CCC1` (stereo not drawn) [Compound 171, (2-Chloro-phenyl)-(8-methyl-1,2,3a,4,5,6-hexahydro-pyrazino[3,2,1-jk]carbazol-3-yl)-methanone], the EC50 is over 1000 nM under setting [3] and over 10000 nM under setting [4].

As to `COc1ccc(NC2CCCc3c2[nH]c2ccc(Cl)cc32)cc1` (stereo not drawn) [Compound 136, (6-Chloro-2,3,4,9-tetrahydro-1H-carbazol-1-yl)-(4-methoxy-phenyl)-amine], under setting [1], the EC50 was under 10 nM.

Take `FC(F)(F)c1ccc2[nH]c3c(c2c1)CCCC3Nc1ccccc1` (stereo not drawn) [Compound 14, Phenyl-(6-trifluoromethyl-2,3,4,9-tetrahydro-1H-carbazol-1-yl)-amine]: under setting [1], the EC50 was under 10 nM.

For the compound `CC(C)COc1ccc2c(c1)c1c3n2CCNC3CCC1` (stereo not drawn) [Compound 167, 8-Isobutoxy-2,3,3a,4,5,6-hexahydro-1H-pyrazino[3,2,1-jk]carbazole], the EC50 under setting [3] was over 1000 nM and the EC50 under setting [4] amounted to 6930 nM.

Regarding `Clc1cccc(NC2CCCc3c2[nH]c2ccc(Br)cc32)c1` (stereo not drawn) [Compound 20, (6-Bromo-2,3,4,9-tetrahydro-1H-carbol-1-yl)-(3-chloro-phenyl)-amine], the EC50 under setting [1] was under 10 nM.

For the compound `COc1ccc(NC(=S)N2CCn3c4c(c5cc(C)ccc53)CCCC42)cc1` (stereo not drawn) [Compound 172, 8-Methyl-1,2,3a,4,5,6-hexahydro-pyrazino[3,2,1-jk]carbazole-3-carbothioic acid (4-methoxy-phenyl)-amide], the EC50 under setting [3] was over 1000 nM and the EC50 under setting [4] was over 10000 nM.

In the case of `CC(=O)N1CCN(CC(O)COc2ccc(C3CCCc4c3[nH]c3ccc(Cl)cc43)cc2)CC1` (stereo not drawn) [Compound 214], the EC50 under setting [2] was 40 to 200 nM.

Regarding `O=C(NC1CCCc2c1[nH]c1ccc(Br)cc21)c1ccco1` (stereo not drawn) [Compound 123, Furan-2-carboxylic acid (6-bromo-2,3,4,9-tetrahydro-1H-carbazol-1-yl)-amide], the EC50 under setting [1] lay within 10 to 40 nM.

On to `Brc1ccc2[nH]c3c(c2c1)CCCC3Nc1ccc(Oc2ccccc2)cc1` (stereo not drawn) [Compound 9, (6-Bromo-2,3,4,9-tetrahydro-1H-carbazol-1-yl)-(4-phenoxy-phenyl)-amine], for which the EC50 under setting [1] is under 10 nM.

As for `Brc1ccc2[nH]c3c(c2c1)CCCC3c1nc2ccccc2[nH]1` (stereo not drawn) [Compound 142, 1-(1H-Benzoimidazol-2-yl)-6-bromo-2,3,4,9-tetrahydro-1H-carbazole], the EC50 under setting [1] is 10 to 40 nM.

Take `Cc1ccc2c(c1)c1c3n2CCN(N=O)C3CCC1` (stereo not drawn) [Compound 162, 8-Methyl-3-nitroso-2,3,3a,4,5,6-hexahydro-1H-pyrazino[3,2,1-jk]carbazole]: the EC50 was 200 to 1000 nM under setting [3] and 890 nM under setting [4].

For the compound `CC(=O)n1c2c(c3cc(Br)ccc31)CCCC2` [Compound 86, 1-(6-Bromo-1,2,3,4-tetrahydro-carbazol-9-yl)-ethanone], the EC50 under setting [1] was over 1000 nM.

For `c1ccn(C2CCCc3c2[nH]c2ccc(N4CCCC4)cc32)c1` (stereo not drawn) [Compound 106, 6-Pyrrolidin-1-yl-1-pyrrol-1-yl-2,3,4,9-tetrahydro-1H-carbazole], the EC50 under setting [1] is over 1000 nM.

In the case of `CC(=O)N1CCN(CC(O)COc2ccc(C3CCCc4c3[nH]c3ccc(Br)cc43)cc2)CC1` (stereo not drawn) [Compound 197], under setting [2], the EC50 is under 10 nM.

For `O=[N+]([O-])c1ccc2[nH]c3c(c2c1)CCCC3NC1CCC(c2ccccc2)CC1` (stereo not drawn) [Compound 157], the EC50 under setting [3] was in the range of 10 to 40 nM and the EC50 under setting [4] turned out to be 14.9 nM.

Take `O=C(NC1CCCc2c1[nH]c1ccc(Br)cc21)c1cccc(Oc2ccccc2)c1` (stereo not drawn) [Compound 30, N-(6-Bromo-2,3,4,9-tetrahydro-1H-carbazol-1-yl)-3-phenoxy-benzamide]: the EC50 under setting [1] was 10 to 40 nM.

`COc1cccc(CNC2CCCc3c2[nH]c2ccc(Br)cc32)c1OC` (stereo not drawn) [Compound 55, (6-Bromo-2,3,4,9-tetrahydro-1H-carbazol-1-yl)-(2,3-dimethoxy-benzyl)-amine]: the EC50 under setting [1] lay in the range of 40 to 200 nM.

Turning to `CN1CCN(CC(O)COc2ccc(C3CCCc4c3[nH]c3ccc(Cl)cc43)cc2)CC1` (stereo not drawn) [Compound 219], under setting [2], the EC50 was 10 to 40 nM.

In the case of `OCCc1cccc(NC2CCCc3c2[nH]c2ccc(Br)cc32)c1` (stereo not drawn) [Compound 63, 2-[3-(6-Bromo-2,3,4,9-tetrahydro-1H-carbazol-1-ylamino)-phenyl]-ethanol], under setting [1], the EC50 was in the range of 200 to 1000 nM.

As for `Brc1ccc2[nH]c3c(c2c1)CCCC3NCc1ccc2c(c1)OCO2` (stereo not drawn) [Compound 62, Benzo[1,3]dioxo-5-ylmethyl-(6-bromo-2,3,4,9-tetrahydro-1H-carbazol-1-yl)-amine], the EC50 under setting [1] was 200 to 1000 nM.

Turning to `O=C(NC1CCCc2c1[nH]c1ccc(Br)cc21)c1ccc[nH]1` (stereo not drawn) [Compound 126, 1H-Pyrrole-2-carboxylic acid (6-bromo-2,3,4,9-tetrahydro-1H-carbazol-1-yl)-amide], under setting [1], the EC50 was 40 to 200 nM.

For the compound `O=C1CCCc2c1[nH]c1ccc(OC(F)(F)F)cc21` [Compound 73, 6-Trifluoromethoxy-2,3,4,9-tetrahydro-carbazol-1-one], the EC50 under setting [1] fell in the range of 200 to 1000 nM.

Take `Clc1ccc(NC2CCCc3c2[nH]c2ccc(Br)cc32)cc1` (stereo not drawn) [Compound 3, (6-Bromo-2,3,4,9-tetrahydro-1H-carbazol-1-yl)-(4-chloro-phenyl)-amine]: under setting [1], the EC50 was under 10 nM.

With `COc1cccc(C2CCCc3c2[nH]c2ccc(Br)cc32)c1` (stereo not drawn) [Compound 16, 6-Bromo-1-(3-methoxy-phenyl)-2,3,4,9-tetrahydro-1H-carbazole], under setting [1], the EC50 was under 10 nM.

With `Clc1ccc(NC2CCCc3c2[nH]c2ccc(Cl)cc32)cc1` (stereo not drawn) [Compound 135, (4-Chloro-phenyl)-(6-chloro-2,3,4,9-tetrahydro-1H-carbazol-1-yl)-amine], under setting [1], the EC50 lay in the range of 10 to 40 nM.

In the case of `OC(COc1ccc(C2CCCc3c2[nH]c2ccc(Br)cc32)cc1)Cn1cncn1` (stereo not drawn) [Compound 203], the EC50 under setting [2] fell in the range of 10 to 40 nM.

As to `Fc1cccc(NC2CCCc3c2[nH]c2ccc(Br)cc32)c1` (stereo not drawn) [Compound 12, (6-Bromo-2,3,4,9-tetrahydro-1H-carbazol-1-yl)-(3-fluoro-phenyl)-amine], the EC50 under setting [1] was under 10 nM.

With `CN1CCN(CCCOc2ccc(C3CCCc4c3[nH]c3ccc(Br)cc43)cc2)CC1` (stereo not drawn) [Compound 208], under setting [2], the EC50 was in the range of 40 to 200 nM.

`Oc1ccc(C2CCCc3c2[nH]c2ccc(Br)cc32)cc1` (stereo not drawn) [Compound 193]: the EC50 under setting [2] is 10 to 40 nM.

Consider `CC(C)c1ccc(NC2CCCc3c2[nH]c2ccc(Br)cc32)cc1` (stereo not drawn) [Compound 8, (6-Bromo-2,3,4,9-tetrahydro-1H-carbazol-1-yl)-(4-isopropyl-phenyl)-amine], for which the EC50 under setting [1] is under 10 nM.

In the case of `OC1CCc2c([nH]c3ccc(Br)cc23)C1c1ccc(F)cc1` (stereo not drawn) [Compound 239], the EC50 under setting [2] is under 10 nM.

In the case of `O/N=C1\CCCc2c1[nH]c1ccc(Br)cc21` [Compound 87, 6-Bromo-2,3,4,9-tetrahydro-carbazol-1-one oxime], the EC50 under setting [1] is over 1000 nM.
